#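 GI50: concentration for 50% inhibition of growth. The concentration for full growth arrest is given as TGI.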
# Assays:
# Assay in all cases: NCI-60 cell line screen, 384-well format
# [1] = tested on: A498 renal
# [2] = tested on: DU-145 prostate
# [3] = tested on: EKVX NSCLC
# [4] = tested on: HCT-116 colon
# [5] = tested on: HOP-92 NSCLC
# [6] = tested on: K-562 leukemia
# [7] = tested on: MDA-MB-435 melanoma
# [8] = tested on: MOLT-4 leukemia
# [9] = tested on: NCI-H23 lung
# [10] = tested on: NCI-H460 NSCLC
# [11] = tested on: SF-268 CNS
# [12] = tested on: SK-MEL-2 melanoma
# [13] = tested on: SR leukemia
structure (smiles),measurement,setting,value
C/C=C1\NC(=O)[C@H]2CSSCCC=C[C@H](CC(=O)N[C@H](C(C)C)C(=O)N2)OC(=O)[C@H](C(C)C)NC1=O,GI50,[1],< 10 nM
same,TGI,[1],< 10 nM
same,GI50,[2],< 10 nM
same,TGI,[2],< 10 nM
same,GI50,[3],< 10 nM
same,TGI,[3],30.8 nM
same,GI50,[4],< 10 nM
same,TGI,[4],< 10 nM
same,GI50,[5],< 10 nM
same,TGI,[5],< 10 nM
same,GI50,[6],< 10 nM
same,TGI,[6],< 10 nM
same,GI50,[7],< 10 nM
same,TGI,[7],< 10 nM
same,GI50,[8],< 10 nM
same,TGI,[8],< 10 nM
same,GI50,[9],< 10 nM
same,TGI,[9],< 10 nM
same,GI50,[10],< 10 nM
same,TGI,[10],10.1 nM
same,GI50,[11],< 10 nM
same,TGI,[11],< 10 nM
same,GI50,[12],< 10 nM
same,TGI,[12],< 10 nM
same,GI50,[13],< 10 nM
same,TGI,[13],< 10 nM
